From publication PMC5413018, “Neuropeptide S (NPS) variants modify the signaling and risk effects of NPS Receptor 1 (NPSR1) variants in asthma” (PLoS ONE, 2017) come the findings set out here.

The target in one experiment is T1, NPSR1-Asn(107) (Homo sapiens, UniProt Q6W5P4).
T1 construct: expressed in transfected cells; host or cells: HEK293
T1 sequence (Q6W5P4 1-371): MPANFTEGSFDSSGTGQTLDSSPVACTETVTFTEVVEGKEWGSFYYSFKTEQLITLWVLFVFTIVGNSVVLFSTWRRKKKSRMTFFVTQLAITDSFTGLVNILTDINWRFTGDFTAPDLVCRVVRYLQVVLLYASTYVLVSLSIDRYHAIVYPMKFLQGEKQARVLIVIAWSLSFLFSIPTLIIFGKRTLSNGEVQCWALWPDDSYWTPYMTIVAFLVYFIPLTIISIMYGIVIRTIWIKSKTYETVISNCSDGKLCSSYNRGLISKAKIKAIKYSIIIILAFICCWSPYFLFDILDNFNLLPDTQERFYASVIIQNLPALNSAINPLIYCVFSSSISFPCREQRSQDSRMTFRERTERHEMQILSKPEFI
Nature of the experiment: CRE-dependent luciferase activity, NPSR1-Asn(107). In kind it is cell-based. The conditions noted are these: HEK293 transiently transfected with NPSR1-Asn(107); NPS 10 pM-100 μM, 3 h; three experiments in triplicates; mean ± SE; Val(6) vs Leu(6) p = 0.03; read-out: pEC50 for CRE-dependent luciferase activity (converted). From the text:
(§1) To compare the bioactivities of the two NPS variants, we measured the dose-responses of NPSR1-Ile(107) and NPSR1-Asn(107) coding variants to either wildtype NPS-Val(6) or alternative NPS-Leu(6) in a luciferase assay dependent on the activation of a cAMP-response element (CRE). This assay was used since elevation of the intracellular cAMP levels activates cAMP response element binding protein (CREB) via […]. Activated CREB binds to CRE and induces the expression of downstream target genes of the cAMP/PKA signaling pathway. Because of the low endogenous expression levels of NPSR1 in majority of the available cell lines, we first used HEK293 cells with forced NPSR1 expression as a model for ligand-receptor interactions. […] Firefly and Renilla luciferase activity was measured 3 h after stimulation with serial dilutions of NPS (10 pM-100 μM). […]
(§2) Human embryonic kidney cells (HEK293) were cultured in MEM+GlutaMAX-1 medium (Gibco/Invitrogen) supplemented with 10% fetal calf serum (FCS) (Biosera), 1% sodium pyruvate, 1% non-essential amino acids and 1% penicillin/streptomycin (Gibco/Invitrogen). […] The HEK293 cell line was chosen for ligand-receptor studies because it is a well-established model for addressing numerous questions in basic biology and is easy to transfect and amenable of stringent quantitative assessment. […]

For the next experiment, the target named is T2, NPSR1-Ile(107) (Homo sapiens, UniProt Q6W5P4, N107I).
T2 sequence (Q6W5P4 1-371 N107I): T1 sequence (Q6W5P4 1-371) with N107I
Nature of the experiment: CRE-dependent luciferase activity, NPSR1-Ile(107). In kind it is cell-based. Details: expressed in transfected cells; host or cells: HEK293. To be noted: HEK293 transiently transfected with NPSR1-Ile(107); NPS 10 pM-100 μM, 3 h; three experiments in triplicates; mean ± SE; Val(6) vs Leu(6) p = 0.004; read-out: pEC50 for CRE-dependent luciferase activity (converted).
Description: as §1, §2

The structures appear in SMILES notation. Positions count from the first letter of the chain named. Residues, ends and D or L forms follow the SMILES beside them.

Consider `CSCC[C@H](NC(=O)CNC(=O)[C@@H](NC(=O)CNC(=O)[C@H](CC(C)C)NC(=O)CNC(=O)[C@H](CC(N)=O)NC(=O)[C@H](CCCNC(=N)N)NC(=O)[C@H](Cc1ccccc1)NC(=O)[C@@H](N)CO)[C@@H](C)O)C(=O)N[C@@H](CCCCN)C(=O)N[C@@H](CCCCN)C(=O)N[C@H](C(=O)N[C@@H](CO)C(=O)N[C@@H](Cc1ccccc1)C(=O)N[C@@H](CCC(N)=O)C(=O)N[C@@H](CCCNC(=N)N)C(=O)N[C@@H](C)C(=O)N[C@@H](CCCCN)C(=O)N[C@@H](CO)C(=O)O)[C@@H](C)O` [NPS-Leu(6)] (H-SFRNGLGTGMKKTSFQRAKS-OH), for which the EC50 was 12600 nM at NPSR1-Asn(107) and 200 nM on NPSR1-Ile(107).

In the case of `CSCC[C@H](NC(=O)CNC(=O)[C@@H](NC(=O)CNC(=O)[C@@H](NC(=O)CNC(=O)[C@H](CC(N)=O)NC(=O)[C@H](CCCNC(=N)N)NC(=O)[C@H](Cc1ccccc1)NC(=O)[C@@H](N)CO)C(C)C)[C@@H](C)O)C(=O)N[C@@H](CCCCN)C(=O)N[C@@H](CCCCN)C(=O)N[C@H](C(=O)N[C@@H](CO)C(=O)N[C@@H](Cc1ccccc1)C(=O)N[C@@H](CCC(N)=O)C(=O)N[C@@H](CCCNC(=N)N)C(=O)N[C@@H](C)C(=O)N[C@@H](CCCCN)C(=O)N[C@@H](CO)C(=O)O)[C@@H](C)O` [NPS-Val(6)] (H-SFRNGVGTGMKKTSFQRAKS-OH), the EC50 on NPSR1-Asn(107) is 794 nM; on NPSR1-Ile(107), 3.98 nM.
